In the pKa sets of Baltruschat and Czodrowski (2020):
Where a SMILES comes first, the peptide text is derived from it.

conditions: basic group

| SMILES | pKa |
| --- | --- |
| CCc1cc(-c2ccccc2)nnc1NCC[NH+]1CCOCC1 | 4.37 |
| CCCNCCC | 11 |
| CCCCCCCCCCCCCCCNCCCCCCCCCCCCCCC | 11 |
| O=C(CCN1CCCCC1)c1ccccc1 | 9.23 |
| CCN(CC)Cc1cc(C)ccc1O | 8.94 |
| CCCCNC | 10.8 |
| Nc1c2c(ncn2Cc2ccccc2)nc[n+]1[O-] | 2.4 |
| c1c(CN2CCNCCNCC2)n[nH]c1CN1CCNCCNCC1 | 11.2 |
| CCCNCC[S-] | 10.9 |
| CCCCCCCCNCCC(=O)[O-] | 10.6 |
| ClCCN1CCOCC1 | 6.27 |
| NCCCCCCCCC(=O)[O-] | 11 |
| O=C([O-])[C@@H]1CCCN1C(=O)[C@@H]1CCCN1 (H-Pro-Pro-OH) | 9.27 |
| CC(=O)Nc1ccc(C2CCC[NH+]2C)cn1 (configuration not stated) | 2.2 |
| C(C[NH2+]CCc1nnn[n-]1)NCCc1nnn[n-]1 | 6.3 |
| Cc1cc(-c2ccccc2)nn2ccnc12 | 4.84 |
| Nc1ccc2nc3ccccc3cc2c1 | 5.88 |
| C[NH+]1CCn2c(nc3ccccc32)C1 | 2.55 |
| Cc1cc(C)c2ccc3cccnc3c2n1 | 5.96 |
| CN(C)c1cccc([N+](=O)[O-])c1 | 2.58 |
| COc1ccc(C[C@H](C)N)cc1OC | 9.6 |
| CC1=C(CC(C)NCC(O)c2ccc(C)cc2)CCC1(C)C (configuration not stated) | 8.71 |

| SMILES | pKa |
| --- | --- |
| Cc1nc(N)c2cnn(-c3ccccc3)c2n1 | 4.52 |
| Clc1cc(-c2ccccc2)nnc1NCC[NH+]1CCOCC1 | 2.54 |
| COC(=O)c1c2ccccc2nc2ccccc12 | 3.45 |
| CCOC(=O)CCCc1ccccn1 | 5.32 |
| C[C@H](N)Cc1ccc(O)cc1 | 9.3 |
| CC(C)(C)CC(=O)n1cnc(Br)c1 | 4 |
| Nc1ncnc2nn([C@@H]3C[C@@H](O)[C@H](CO)O3)nc12 | 3.1 |
| Cn1cncc1C[C@H](NC(=O)CC[NH3+])C(=O)[O-] | 7.08 |
| Oc1ccc2nc3ccccc3nc2c1 | 2.6 |
| Nc1ccc(Cl)cn1 | 4.83 |
| Cc1cc[nH]n1 | 3.66 |
| CC[C@]1(O)C[C@@H](C)N[C@H]2CCCC[C@@H]21 | 9.71 |
| CN1C[C@H](C(=O)[O-])C[C@@]2(O)c3cccc4[nH]cc(c34)C[C@H]12 | 9.17 |
| O=C([O-])CC(c1ncc[nH]1)c1[nH]cc[nH+]1 | 4.62 |
| CC1(C)CCC(C2CCC(C)(C)N2)N1 (configuration not stated) | 10.3 |
| c1ccc(C2=NCCC2)cc1 | 7.2 |
| Cc1cnc2cccc([N+](=O)[O-])c2c1NCCC[NH+](C)C | 6.01 |
| C1CNCC[NH2+]CCN1 | 6.97 |
| CN(C)/C=N/c1ccc([N+](=O)[O-])cc1 | 6.71 |
| CCN1CCCC1 | 11 |
| CCN1CCCCC1 | 10.7 |
| Nc1ccc2c(c1)Cc1c(F)cccc1-2 | 3.54 |

| SMILES | pKa |
| --- | --- |
| C[NH+](C)CCC/N=C(\c1ccccc1)c1ccccc1Cl | 3.46 |
| C=CCC(C)(CN(CC)CC)OC(=O)CCC (configuration not stated) | 8.5 |
| Cc1nc2ccccc2[nH]1 | 6.3 |
| Cc1ccc(C2=NCCC2)cc1 | 6.41 |
| CCC(C)NCC(C)C (configuration not stated) | 10.8 |
| O/N=C/c1ccccc1O | 1.37 |
| CN(C)CCN(C)CC[NH+](C)C | 8.63 |
| CC(N)C(=O)[O-] (configuration not stated) | 9.83 |
| CC(=O)c1ccccn1 | -0.46 |
| CCN(CC)CCNc1ccnc2ccccc12 | 8.95 |
| NC(=O)C(c1ccccc1)c1ccccn1 (configuration not stated) | 3.8 |
| O=C([O-])[C@H](NCCN[C@@H](C(=O)[O-])c1ccccc1[O-])c1ccccc1[O-] | 12.1 |
| CCCNc1ccccc1 | 5.12 |
| CCOc1cccc(C(=O)N[C@@H]2C[C@H]3CC[C@@H](C2)N3Cc2ccccc2)c1OC | 8.78 |
| Cc1ccc2c(c1)N1CCN2CC1 | 5.83 |
| Cn1ccc(=O)c2ccccc21 | 2.36 |
| CNc1nc2ncncc2[nH]1 | 4.78 |
| Cc1nc2ccccc2n1C | 6.55 |
| CC(C)N(Cc1ccccc1O)C(C)C | 7.55 |
| O=C([O-])c1ccc2ncccc2c1 | 4.82 |
| O=C1C[C@H]2OCC(S(=O)(=O)[O-])=C3CN4CC[C@@]56c7ccccc7N1[C@@H]5[C@@H]2[C@@H]3C[C@@H]46 | 7.54 |
| NCCCCc1ccccc1 | 10.4 |

| SMILES | pKa |
| --- | --- |
| CC1CCNC(C)(C)C1 (configuration not stated) | 11.1 |
| COc1cc(N)c(C#N)c(N)n1 | 4.17 |
| CC[NH+](CC)CCCC(C)Nc1cc(OC)cc2ccc[nH+]c12 (configuration not stated) | -1.33 |
| CC(=O)C1(c2cccc(O)c2)CCN(C)CC1 | 8.61 |
| CCN(C#N)CC | -2 |
| O=Cc1ccccn1 | 3.86 |
| CN(C)CCOCC[NH+](C)C | 8.21 |
| N=C(c1ccccc1)c1ccc(O)cc1 | 6.45 |
| C#CCCCN | 10.2 |
| O=C([O-])c1cccc2cc3ccccc3nc12 | 7.72 |
| CCOC(=O)CN | 7.74 |
| COc1ccc2c(c1)cc(C)n2C | 0.25 |
| C(=N\c1ccccc1)/c1ccccc1 | 4.55 |
| CCc1cnccc1N | 9.17 |
| [S-]c1ccnc([S-])[nH+]1 | 6.46 |
| Nc1nc([O-])c2nc[nH]c2n1 | 9.3 |
| COc1cnccc1C=O | 4.45 |
| Cc1cnc2c(O)cccc2c1C | 5.8 |
| C[C@H]1C[C@@H]2CCC[C@@H]2N1C | 10.1 |
| Nc1cc([N+](=O)[O-])cc2ccccc12 | 2.24 |
| CN(C)c1ncnc2nc[nH]c12 | 3.87 |
